# Experiments:
# [1] = system: CNS-1 glioma cells; assay: Co-culture of CD-NSCs with glioma cells plus 5-FC: tumor cell count per high-power field; format: cell-based; details: tumor cell-only plates, no CD-NSCs, 5-FC 500 μg/ml
# From the text: FIGS. 2A-2C summarize the significant antitumor effect of CD-expressing NSCs in vitro. CNS-1 glioblastoma cells were co-cultured with murine CD-NSCs (FIGS. 2A and 2B) or human CD-NSCs. Representative low power fields are shown after fixation and X-gal staining (CD-NSCs dark blue, tumor cells pale) three days after plating with or without 5-FC. […] In this treatment regime, the NSCs were still dividing and thus also subject to elimination by 5-FU and its toxic metabolites. […] Note also, that the tumor-killing effect was virtually identical whether 50,000 or 100,000 CD-NSCs were initially plated with 200,000 tumor cells.
# This experiment was performed to determine if modified CD-NSCs could effectively deliver therapy to tumor cells and produce a profound antitumor response. 200,000 CNS-1 glioma cells were plated into 10 cm Petri dishes. The following day (Day 1) media were replaced, and 50,000 or 100,000 CD-NSCs were added. On Day 2, media were replaced and 5-FC added (500 μg/ml). Control dishes included tumor-NSC co-cultures with no 5-FC treatment and tumor cell-only dishes with 5-FC treatment. Three days later, all plates were rinsed well with 1× PBS and fixed with 4% paraformaldehyde for 10 min at room temperature. […] Under high power, the numbers of tumor cells per field were counted. […]
# [2] = system: CNS-1 glioblastoma; assay: Intracranial CNS-1 tumor co-transplanted with CD-NSCs, i.p. 5-FC: tumor mass; format: in vivo, adult nude mice; details: tumor alone, 5-FC 900 mg/kg i.p. for 10 days
# From the text: CNS-1 glioblastoma cells alone, or CNS-1 cells co-transplanted with human CS-NSCs were implanted into the frontal lobe of adult nude mice. Two days later, treated animals began to receive daily intraperitoneal injections of 5-FC which continued for ten days. […] Note that there was about an 80% reduction in tumor mass in 5-FC-treated animals transplanted with tumor and CD-NSCs (FIG. 3D). […] FIGS. 3B, 3C and 3D are “camera lucida” sections of tumor areas on representative cryostat tissue sections, stained with X-gal and counterstained with neutral red.
# On Day 0, adult nude mice received stereotactically guided injections into the right frontal lobe of CNS-1 glioblastoma alone (7×10^4 in 2 μl PBS), or CNS-1 cells mixed with CD-NSCs (7×10^4 CNS-1 and 3.5×10^4 NSCs in 2 μl PBS). Two days later treated animals received 10 intraperitoneal injections 900 mg/kg of 5-FC over a period of 10 days. Control animals received no 5-FC. Animals were sacrificed on day 13.
structure (smiles),measurement,setting,value
"Nc1nc(=O)[nH]cc1F [5-FC, 5-fluorocytosine]","killing of tumor cells, tumor alone",[1],not significantly killed
same,effect on tumor mass in the absence of CD-NSCs,[2],no effect on tumor mass

# Reference: patent US7393526B2, “Systemic gene delivery vehicles for the treatment of tumors” (Children's Medical Center Corporation, priority 2000, dated 2008)
